Assay results from patent US6737383B1, “Herbicidal oxadiazolidines” (priority 1999, dated 2004).

Legend:
bedstraw = assay: Test B pre/postemergence bedstraw; type: in vivo, Galium aparine
Procedure, shortened: (§1)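 Response is a visual 0-to-10 score relative to untreated plants, where 0 means no effect and 10 means complete control, taken twelve to sixteen days after application. Treatments went onto soil at planting and onto foliage of 1- to 4-leaf plants, using a surfactant-containing non-phytotoxic solvent.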

cocklebur = assay: Test B pre/postemergence cocklebur; type: in vivo, Xanthium strumarium
Procedure, shortened: as §1

pigweed = assay: Test B pre/postemergence pigweed; type: in vivo, Amaranthus retroflexus
Procedure, shortened: as §1

blackgrass = assay: Test B pre/postemergence blackgrass; type: in vivo, Alopecurus myosuroides
Procedure, shortened: as §1

crabgrass = assay: Test B pre/postemergence crabgrass; type: in vivo, Digitaria sanguinalis
Procedure, shortened: as §1

surinam grass = assay: Test B pre/postemergence surinam grass; type: in vivo, Brachiaria decumbens
Procedure, shortened: as §1

wild oat = assay: Test B pre/postemergence wild oat; type: in vivo, Avena fatua
Procedure, shortened: as §1

soybean = assay: Test B pre/postemergence soybean; type: in vivo, Glycine max
Procedure, shortened: as §1

velvetleaf = assay: Test B pre/postemergence velvetleaf; type: in vivo, Abutilon theophrasti
Procedure, shortened: as §1

morningglory = assay: Test B pre/postemergence morningglory; type: in vivo, Ipomoea hederacea
Procedure, shortened: as §1

giant foxtail = assay: Test B pre/postemergence giant foxtail; type: in vivo, Setaria faberii
Procedure, shortened: as §1

rape = assay: Test B pre/postemergence rape; type: in vivo, Brassica napus
Procedure, shortened: as §1

wheat = assay: Test B pre/postemergence wheat; type: in vivo, Triticum aestivum
Procedure, shortened: as §1

sugar beet = assay: Test B pre/postemergence sugar beet; type: in vivo, Beta vulgaris
Procedure, shortened: as §1

corn = assay: Test B pre/postemergence corn; type: in vivo, Zea mays
Procedure, shortened: as §1

purple nutsedge = assay: Test B pre/postemergence purple nutsedge; type: in vivo, Cyperus rotundus
Procedure, shortened: as §1

[1] = Preemergence, Rate 62 g/ha, scale of 0 to 10 where 0 is no effect and 10 is complete control
[2] = Preemergence, Rate 500 g/ha, scale of 0 to 10 where 0 is no effect and 10 is complete control
[3] = Rate 62 g/ha, Postemergence, scale of 0 to 10 where 0 is no effect and 10 is complete control
[4] = Rate 125 g/ha, Postemergence, scale 0 to 10
[5] = Rate 125 g/ha, Preemergence, scale of 0 to 10 where 0 is no effect and 10 is complete control
[6] = Preemergence, Rate 250 g/ha, scale of 0 to 10 where 0 is no effect and 10 is complete control
[7] = Rate 500 g/ha, Postemergence, scale 0 to 10, 0 no effect, 10 complete control

CC(C)N(C(=O)n1oc(=O)n(C(C)C(=O)c2ccccc2)c1=O)c1ccc(F)cc1 (stereo not shown) [Compound 260]
Bedstraw plant response rating (bedstraw; [1]): 0
Plant response rating, Bedstraw (bedstraw; [2]): 5
Bedstraw plant response rating (bedstraw; [3]): 6
Bedstraw plant response rating (bedstraw; [4]): 7
Bedstraw plant response rating (bedstraw; [5]): 0
Cocklebur plant response rating (cocklebur; [1]): 0
Cocklebur plant response rating (cocklebur; [6]): 0
Plant response rating, Cocklebur (cocklebur; [2]): 0
Cocklebur plant response rating (cocklebur; [3]): 0
Cocklebur plant response rating (cocklebur; [4]): 0
Cocklebur plant response rating (cocklebur; [5]): 0
Plant response rating (0 to 10; 0 is no effect, 10 is complete control), Cocklebur (cocklebur; Rate 250 g/ha, Postemergence): 0
Cocklebur plant response rating (cocklebur; [7]): 0
Redroot pigweed plant response rating (pigweed; [1]): 0
Redroot pigweed plant response rating (pigweed; [6]): 4
Plant response rating, Redroot pigweed (pigweed; [2]): 4
Redroot pigweed plant response rating (pigweed; [5]): 0
Plant response rating (0 to 10; 0 is no effect, 10 is complete control), Redroot pigweed (pigweed; Rate 250 g/ha, Postemergence): 3
Redroot pigweed plant response rating (pigweed; [7]): 6
Blackgrass plant response rating (blackgrass; [1]): 0
Blackgrass plant response rating (blackgrass; [6]): 2
Plant response rating, Blackgrass (blackgrass; [2]): 3
Blackgrass plant response rating (blackgrass; [3]): 0
Blackgrass plant response rating (blackgrass; [4]): 0
Blackgrass plant response rating (blackgrass; [5]): 0
Plant response rating (0 to 10; 0 is no effect, 10 is complete control), Blackgrass (blackgrass; Rate 250 g/ha, Postemergence): 0
Blackgrass plant response rating (blackgrass; [7]): 0
Crabgrass plant response rating (crabgrass; [1]): 0
Crabgrass plant response rating (crabgrass; [6]): 6
Plant response rating, Crabgrass (crabgrass; [2]): 9
Crabgrass plant response rating (crabgrass; [5]): 2
Plant response rating (0 to 10; 0 is no effect, 10 is complete control), Crabgrass (crabgrass; Rate 250 g/ha, Postemergence): 0
Crabgrass plant response rating (crabgrass; [7]): 0
B. signalgrass plant response rating (surinam grass; [1]): 0
B. signalgrass plant response rating (surinam grass; [6]): 0
Plant response rating, B. signalgrass (surinam grass; [2]): 3
B. signalgrass plant response rating (surinam grass; [3]): 0
B. signalgrass plant response rating (surinam grass; Rate 125 g/ha, Postemergence, scale 0 (no effect) to 10 (complete control)): 0
B. signalgrass plant response rating (surinam grass; [5]): 0
Plant response rating (0 to 10; 0 is no effect, 10 is complete control), B. signalgrass (surinam grass; Rate 250 g/ha, Postemergence): 0
B. signalgrass plant response rating (surinam grass; [7]): 0
Wild oats plant response rating (wild oat; [1]): 0
Wild oats plant response rating (wild oat; [6]): 0
Plant response rating, Wild oats (wild oat; [2]): 0
Wild oats plant response rating (wild oat; [5]): 0
Wild oats plant response rating (wild oat; [7]): 0
Soybean plant response rating (soybean; [1]): 0
Soybean plant response rating (soybean; [6]): 0
Plant response rating, Soybean (soybean; [2]): 0
Soybean plant response rating (soybean; [5]): 0
Soybean plant response rating (soybean; [7]): 1
Velvetleaf plant response rating (velvetleaf; [1]): 0
Velvetleaf plant response rating (velvetleaf; [6]): 0
Plant response rating, Velvetleaf (velvetleaf; [2]): 0
Velvetleaf plant response rating (velvetleaf; [5]): 0
Velvetleaf plant response rating (velvetleaf; [7]): 1
Morningglory plant response rating (morningglory; [1]): 0
Morningglory plant response rating (morningglory; [6]): 0
Plant response rating, Morningglory (morningglory; [2]): 0
Morningglory plant response rating (morningglory; [5]): 0
Plant response rating (0 to 10; 0 is no effect, 10 is complete control), Morningglory (morningglory; Rate 250 g/ha, Postemergence): 3
Morningglory plant response rating (morningglory; [7]): 4
Giant foxtail plant response rating (giant foxtail; [1]): 3
Giant foxtail plant response rating (giant foxtail; [6]): 8
Plant response rating, Giant foxtail (giant foxtail; [2]): 10
Giant foxtail plant response rating (giant foxtail; [5]): 7
Plant response rating (0 to 10; 0 is no effect, 10 is complete control), Giant foxtail (giant foxtail; Rate 250 g/ha, Postemergence): 0
Giant foxtail plant response rating (giant foxtail; [7]): 0
Rape plant response rating (rape; [1]): 0
Rape plant response rating (rape; [6]): 0
Plant response rating, Rape (rape; [2]): 0
Rape plant response rating (rape; [5]): 0
Plant response rating (0 to 10; 0 is no effect, 10 is complete control), Rape (rape; Rate 250 g/ha, Postemergence): 0
Rape plant response rating (rape; [7]): 0
Wheat plant response rating (wheat; [1]): 0
Wheat plant response rating (wheat; [6]): 0
Plant response rating, Wheat (wheat; [2]): 0
Wheat plant response rating (wheat; [5]): 0
Wheat plant response rating (wheat; [7]): 0
Sugarbeets plant response rating (sugar beet; [1]): 0
Sugarbeets plant response rating (sugar beet; [6]): 0
Plant response rating, Sugarbeets (sugar beet; [2]): 0
Sugarbeets plant response rating (sugar beet; [5]): 0
Sugarbeets plant response rating (sugar beet; [7]): 3
Corn plant response rating (corn; [1]): 0
Corn plant response rating (corn; [6]): 0
Plant response rating, Corn (corn; [2]): 0
Corn plant response rating (corn; [3]): 0
Corn plant response rating (corn; [4]): 0
Corn plant response rating (corn; [5]): 0
Plant response rating (0 to 10; 0 is no effect, 10 is complete control), Corn (corn; Rate 250 g/ha, Postemergence): 0
Corn plant response rating (corn; [7]): 0
Nutsedge plant response rating (purple nutsedge; [1]): 0
Nutsedge plant response rating (purple nutsedge; [6]): 0
Nutsedge plant response rating (purple nutsedge; [5]): 0
Plant response rating (0 to 10; 0 is no effect, 10 is complete control), Nutsedge (purple nutsedge; Rate 250 g/ha, Postemergence): 0
Nutsedge plant response rating (purple nutsedge; [7]): 0
